From PubChem BioAssay AID248 (DTP/NCI, 2004)
Values joined by “and” are separate entries in the source; they are usually repeats but may differ in a detail not shown here. Equal entries are not always repeated. Inconclusive results and toxic doses are left out.

System: L1210 leukemia ip in BDF1 mice, survival T/C
Test: NCI In Vivo Anticancer Drug Screen. Data for tumor model L1210 Leukemia (intraperitoneal) in B6D2F1 (BDF1) mice
Conditions: endpoint: mean survival time, higher = longer survival
In short: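 Mice bearing the transplanted tumor received compound or vehicle. Survival of the treated group was divided by that of the vehicle-treated control group to give the ratio.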

[1] = dose: 25.0 mg/kg/injection, schedule: Q01DX001 (ip), vehicle: saline with Tween-80
[2] = dose: 50.0 mg/kg/injection, schedule: Q01DX001 (ip), vehicle: saline with Tween-80
[3] = dose: 25.0 mg/kg/injection, schedule: Q01DX001 (ip), vehicle: saline
[4] = dose: 50.0 mg/kg/injection, schedule: Q01DX001 (ip), vehicle: saline
[5] = dose: 12.5 mg/kg/injection, schedule: Q01DX001 (ip), vehicle: saline
[6] = dose: 100.0 mg/kg/injection, schedule: Q01DX001 (ip), vehicle: saline
[7] = dose: 200.0 mg/kg/injection, schedule: Q01DX001 (ip), vehicle: saline
[8] = dose: 100.0 mg/kg/injection, schedule: Q01DX009 (ip), vehicle: Klucel (hydroxypropylcellulose) (HPC)
[9] = dose: 100.0 mg/kg/injection, schedule: Q04DX003 (ip), vehicle: Klucel (hydroxypropylcellulose) (HPC)
[10] = dose: 200.0 mg/kg/injection, schedule: Q01DX009 (ip), vehicle: Klucel (hydroxypropylcellulose) (HPC)
[11] = dose: 200.0 mg/kg/injection, schedule: Q04DX003 (ip), vehicle: Klucel (hydroxypropylcellulose) (HPC)
[12] = dose: 400.0 mg/kg/injection, schedule: Q01DX009 (ip), vehicle: Klucel (hydroxypropylcellulose) (HPC)
[13] = dose: 400.0 mg/kg/injection, schedule: Q04DX003 (ip), vehicle: Klucel (hydroxypropylcellulose) (HPC)

For `CCN(CC)Cc1cc(-n2cnc3c(Cl)ncnc32)ccc1O`, the T/C (dose: 6.25 mg/kg/injection, schedule: Q04DX003 (ip), vehicle: saline) was 101 % of control, the T/C (dose: 12.5 mg/kg/injection, schedule: Q04DX003 (ip), vehicle: saline) was 103 % of control and the T/C (dose: 25.0 mg/kg/injection, schedule: Q04DX003 (ip), vehicle: saline) was 96 % of control.
`c1ccc2snnc2c1` was tested, and the T/C (dose: 20.0 mg/kg/injection, schedule: Q01DX001 (ip), vehicle: saline) was 102 % of control, the T/C (dose: 40.0 mg/kg/injection, schedule: Q01DX001 (ip), vehicle: saline) was 104 % of control and the T/C (dose: 80.0 mg/kg/injection, schedule: Q01DX001 (ip), vehicle: saline) was 98 % of control.
`CN(CCN1CCCCC1)C(=O)C(c1ccccc1)C1CCCCC1` (configuration not stated) was tested, and the T/C (dose: 75.0 mg/kg/injection, schedule: Q01DX001 (ip), vehicle: saline) was 98 % of control.
For `COc1cc2nc(/C=C/c3nc4cc(OC)c(OC)cc4[nH]3)[nH]c2cc1OC`, the T/C [1] was 100 % of control, the T/C [2] was 100 % of control and the T/C (dose: 100.0 mg/kg/injection, schedule: Q01DX001 (ip), vehicle: saline with Tween-80) was 94 % of control.
For `CCOC(=O)c1ccc(N(CC(S)CNc2cc(C)nc(N)n2)S(=O)(=O)c2ccc(C)cc2)cc1` (configuration not stated), the T/C [3] was 95 % of control and the T/C [4] was 90 % of control.
In the case of `Cc1cc(Cl)cc(Cl)c1OCC(=O)Nc1cc(Cl)ccc1Cl`, the T/C (dose: 100.0 mg/kg/injection, schedule: Q04DX002 (ip), vehicle: saline with Tween-80) is reported as 90 % of control, the T/C (dose: 200.0 mg/kg/injection, schedule: Q04DX002 (ip), vehicle: saline with Tween-80) is reported as 86 % of control and the T/C (dose: 400.0 mg/kg/injection, schedule: Q04DX002 (ip), vehicle: saline with Tween-80) is reported as 86 % of control.
In the case of `C[N+]1=C(/C=C/c2ccc(O)c3ncccc23)C(C)(C)c2ccccc21`, the T/C (dose: 7.5 mg/kg/injection, schedule: Q01DX009 (ip), vehicle: saline) is reported as 93 % of control, the T/C [5] is reported as 106 % of control and the T/C (dose: 15.0 mg/kg/injection, schedule: Q01DX009 (ip), vehicle: saline) is reported as 109 % of control. The T/C [3] was 101 % of control, the T/C (dose: 30.0 mg/kg/injection, schedule: Q01DX009 (ip), vehicle: saline) was 104 % of control and the T/C [4] was 113 % of control. For the same compound, the T/C (dose: 60.0 mg/kg/injection, schedule: Q01DX009 (ip), vehicle: saline) was 101 % of control, the T/C [6] was 92 % of control and 117 % of control and the T/C [7] was 112 % of control.
With `CSCc1ccc(N)cc1` the T/C [8] was 105 % of control, the T/C [9] was 103 % of control and the T/C [10] was 112 % of control. The T/C [11] was 92 % of control, the T/C [12] was 101 % of control and the T/C [13] was 98 % of control.
For `O=[N+]([O-])c1cc(Cl)c(O)c(Cl)c1Cl`, the T/C (dose: 25.0 mg/kg/injection, schedule: Q01DX009 (ip), vehicle: acetone) was 97 % of control, the T/C (dose: 50.0 mg/kg/injection, schedule: Q01DX009 (ip), vehicle: acetone) was 97 % of control and the T/C (dose: 50.0 mg/kg/injection, schedule: Q04DX003 (ip), vehicle: acetone) was 95 % of control. For the same compound, the T/C (dose: 100.0 mg/kg/injection, schedule: Q01DX001 (ip), vehicle: acetone) was 102 % of control, the T/C (dose: 100.0 mg/kg/injection, schedule: Q01DX009 (ip), vehicle: acetone) was 88 % of control and the T/C (dose: 100.0 mg/kg/injection, schedule: Q04DX003 (ip), vehicle: acetone) was 92 % of control. For the same compound, the T/C (dose: 150.0 mg/kg/injection, schedule: Q01DX009 (ip), vehicle: saline) was 90 % of control, the T/C (dose: 200.0 mg/kg/injection, schedule: Q01DX001 (ip), vehicle: acetone) was 100 % of control and the T/C (dose: 225.0 mg/kg/injection, schedule: Q01DX009 (ip), vehicle: saline) was 87 % of control.
With `CN(C)N=Nc1ccccc1C(=O)O` the T/C (dose: 0.78 mg/kg/injection, schedule: Q01DX009 (ip), vehicle: Klucel (hydroxypropylcellulose) (HPC)) was 105 % of control, the T/C (dose: 1.56 mg/kg/injection, schedule: Q01DX009 (ip), vehicle: Klucel (hydroxypropylcellulose) (HPC)) was 97 % of control and the T/C (dose: 3.12 mg/kg/injection, schedule: Q01DX009 (ip), vehicle: Klucel (hydroxypropylcellulose) (HPC)) was 103 % of control. For the same compound, the T/C (dose: 6.25 mg/kg/injection, schedule: Q01DX009 (ip), vehicle: Klucel (hydroxypropylcellulose) (HPC)) was 103 % of control, the T/C (dose: 11.0 mg/kg/injection, schedule: Q01DX009 (ip), vehicle: saline with Tween-80) was 109 % of control and the T/C (dose: 12.5 mg/kg/injection, schedule: Q01DX001 (ip), vehicle: saline with Tween-80) was 95 % of control. For the same compound, the T/C (dose: 12.5 mg/kg/injection, schedule: Q01DX009 (ip), vehicle: saline with Tween-80) was 123 % of control, the T/C (dose: 12.5 mg/kg/injection, schedule: Q04DX003 (ip), vehicle: saline with Tween-80) was 101 % of control and the T/C (dose: 17.0 mg/kg/injection, schedule: Q01DX009 (ip), vehicle: saline with Tween-80) was 107 % of control. For the same compound, the T/C [1] was 98 % of control, the T/C (dose: 25.0 mg/kg/injection, schedule: Q01DX009 (ip), vehicle: saline with Tween-80) was 115 % of control and the T/C (dose: 25.0 mg/kg/injection, schedule: Q04DX003 (ip), vehicle: other) was 115 % of control. For the same compound, the T/C (dose: 25.0 mg/kg/injection, schedule: Q04DX003 (ip), vehicle: saline with Tween-80) was 104 % of control, the T/C (dose: 37.0 mg/kg/injection, schedule: Q01DX009 (ip), vehicle: saline with Tween-80) was 91 % of control and the T/C [2] was 101 % of control. For the same compound, the T/C (dose: 50.0 mg/kg/injection, schedule: Q04DX003 (ip), vehicle: other) was 105 % of control, the T/C (dose: 50.0 mg/kg/injection, schedule: Q04DX003 (ip), vehicle: saline with Tween-80) was 103 % of control and the T/C (dose: 100.0 mg/kg/injection, schedule: Q04DX003 (ip), vehicle: other) was 111 % of control. For the same compound, the T/C (dose: 200.0 mg/kg/injection, schedule: Q04DX003 (ip), vehicle: other) was 113 % of control and the T/C (dose: 400.0 mg/kg/injection, schedule: Q04DX003 (ip), vehicle: other) was 100 % of control.
`CN(C)/N=C/c1cccc[n+]1C` was tested, and the T/C (dose: 6.25 mg/kg/injection, schedule: Q01DX009 (ip), vehicle: saline) was 102 % of control, the T/C (dose: 12.5 mg/kg/injection, schedule: Q01DX009 (ip), vehicle: saline) was 106 % of control and the T/C (dose: 25.0 mg/kg/injection, schedule: Q01DX009 (ip), vehicle: saline) was 115 % of control.
`COc1ccc(CC(N)C(=O)OCc2ccccc2)cc1N(CCCl)CCCl` (configuration not stated) was tested, and the T/C (dose: 0.08 mg/kg/injection, schedule: Q01DX009 (ip), vehicle: saline) was 113 % of control, the T/C (dose: 0.15 mg/kg/injection, schedule: Q01DX009 (ip), vehicle: saline) was 118 % of control and the T/C (dose: 0.3 mg/kg/injection, schedule: Q01DX009 (ip), vehicle: saline) was 118 % of control. For the same compound, the T/C (dose: 0.75 mg/kg/injection, schedule: Q01DX001 (ip), vehicle: saline) was 110 % of control, the T/C (dose: 1.5 mg/kg/injection, schedule: Q01DX001 (ip), vehicle: saline) was 104 % of control and the T/C (dose: 6.0 mg/kg/injection, schedule: Q01DX009 (ip), vehicle: saline) was 93 % of control. The T/C [5] was 155 % of control.
`O=S(Cc1ccccc1)C(Cl)(Cl)c1ccccc1` (configuration not stated) was tested, and the T/C (dose: 100.0 mg/kg/injection, schedule: Q01DX001 (ip), vehicle: other) was 96 % of control, the T/C (dose: 200.0 mg/kg/injection, schedule: Q01DX001 (ip), vehicle: other) was 98 % of control and the T/C (dose: 400.0 mg/kg/injection, schedule: Q01DX001 (ip), vehicle: other) was 102 % of control.
In the case of `CSc1n[nH]c(=O)[nH]c1=S`, the T/C [6] is reported as 96 % of control, the T/C [7] is reported as 101 % of control and the T/C (dose: 400.0 mg/kg/injection, schedule: Q01DX001 (ip), vehicle: saline) is reported as 95 % of control.
`CC12CC(C(O)(C(F)(F)F)C(F)(F)F)C(=O)C=C1CCC1C2CCC2(C)C(C(=O)CC(O)(C(F)(F)F)C(F)(F)F)CCC12` (configuration not stated) was tested, and the T/C (dose: 100.0 mg/kg/injection, schedule: Q01DX001 (sc), vehicle: steriod suspending solution) was 103 % of control, the T/C (dose: 200.0 mg/kg/injection, schedule: Q01DX001 (sc), vehicle: steriod suspending solution) was 103 % of control and the T/C (dose: 400.0 mg/kg/injection, schedule: Q01DX001 (sc), vehicle: steriod suspending solution) was 101 % of control.
With `CCCCCCCCCCCCCCC(=O)c1ccccc1` the T/C [8] was 100 % of control, the T/C [9] was 105 % of control and the T/C [10] was 102 % of control. The T/C [11] was 102 % of control, the T/C [12] was 95 % of control and the T/C [13] was 104 % of control.
In the case of `COc1ccc([N+](=O)[O-])cc1NC(=O)Nc1nccs1`, the T/C (dose: 50.0 mg/kg/injection, schedule: Q01DX009 (ip), vehicle: Klucel (hydroxypropylcellulose) (HPC)) is reported as 105 % of control, the T/C [8] is reported as 105 % of control and the T/C [10] is reported as 101 % of control.
